How the values were obtained:
Assay type in all cases: cell-based
[1] = tested on: ATPase regulation processes/pathways; experiment: Percentile of treatment anti-aging effect on Gene Ontology processes/pathways (FIG. 7)
Excerpt: (§1) In general, the method computes a distance between two vectors (i.e., a vector distance), and determines the statistical significance of the vector distance to assess the effect of a treatment on a particular biological pathway. The first of the two vectors is a set of expression changes representing the treatment effect of an ingredient on genes in the biological pathway, and includes one value for each of the genes in the biological pathway. The second of the vectors is a set of expression changes representing the effect of the condition on the genes of the biological pathway. By comparing the vector distance between the two vectors against an empirical distribution of vector distances, the significance of the effect of the treatment on the biological pathway can be determined. […]
(§2) While the vector distance for a treatment and a target biological pathway is indicative of the effect of the treatment on the target biological pathway, the vector distance by itself is not indicative of the significance of the effect relative to other effects on other biological pathways. The statistical significance of a particular vector distance may be extrapolated from an empirical distribution of vector distances calculated using reference genomics data such as connectivity map (CMap) genomics data. […]

[2] = tested on: cholesterol biosynthesis pathway; experiment: Vector (cosine) distance between treatment and clinical aging gene expression vectors, with percentile in the reference genomics distribution (FIG. 4)
Excerpt: (§3) In general, the method computes a distance between two vectors (i.e., a vector distance), and determines the statistical significance of the vector distance to assess the effect of a treatment on a particular biological pathway. The first of the two vectors is a set of expression changes representing the treatment effect of an ingredient on genes in the biological pathway, and includes one value for each of the genes in the biological pathway. The second of the vectors is a set of expression changes representing the effect of the condition on the genes of the biological pathway. By comparing the vector distance between the two vectors against an empirical distribution of vector distances, the significance of the effect of the treatment on the biological pathway can be determined. The genes corresponding to each biological pathway/process and represented in each of the vectors are specified by Gene Ontology, KEGG pathway, WikiPathway, and/or any other known source.
In the case of a study of the effects of a particular agent, Pal-KTTKS (e.g., at 3 ppm concentrations), on aging of skin cells, for example, a particular biological process may be targeted. For each of the genes in the target biological process, the expression changes (e.g., log 2 fold changes) between old and young cells may be calculated for cells exposed to ultraviolet (UV) radiation (e.g., cells taken from the arms), for cells not exposed to UV radiation (e.g., cells taken from the buttocks), or for both. That is, the condition genomics data 34 may be compared to the control genomics data 33 to determine the expression change for each of the genes in the target biological process. The expression changes between treated and untreated cells may also be calculated for each of the genes in the target biological process, which in some implementations may include comparing the control genomics data 33 to the treatment genomics data 32. Each set of expression changes (where each set comprises an expression change for each of the genes in the target biological process) forms a corresponding vector, and the vector for the treatment effect (also referred to hereafter as the “treatment vector”) is compared to the vector for the reference effect (e.g., the vector for old/young cells), which is also referred to herein as a “clinical vector,” by taking the distance (e.g., cosine distance) between the vectors.
Specific methods and calculations will now be described using the examples above in which the target treatment is Pal-KTTKS (and others) and the target condition is aging of skin cells. Throughout, UV-mediated aging may also be referred to as “photo-aging,” and cells subject to photo-aging may be referred to as “UV-exposed skin cells” or “skin cells exposed to UV radiation.” Similarly, non-UV-mediated aging may also be referred to as “intrinsic aging,” and cells subject to intrinsic aging may be referred to as “non-UV-exposed skin cells.” The treatment effect—in this case the anti-aging effect—of a specified ingredient (e.g., Pal-KTTKS) is measured by the vector distance (e.g., cosine distance) between two vectors of expression changes (e.g., log 2 fold expression changes) of genes in a target biological process. One of the vectors compares treatment genomics data for the genes with control genomics data for the genes to represent the treatment effects on the genes (i.e., a “treatment effect vector” or “treatment vector” of the ingredient). […]

[3] = tested on: cholesterol metabolism processes/pathways; experiment: Percentile of treatment anti-aging effect on Gene Ontology processes/pathways (FIG. 6); details: for effect on the cholesterol metabolism processes/pathways: processes/pathways 100a-h, associated with fibroblasts
Excerpt: as §3
Specific methods and calculations will now be described using the examples above in which the target treatment is Pal-KTTKS (and others) and the target condition is aging of skin cells. Throughout, UV-mediated aging may also be referred to as “photo-aging,” and cells subject to photo-aging may be referred to as “UV-exposed skin cells” or “skin cells exposed to UV radiation.” Similarly, non-UV-mediated aging may also be referred to as “intrinsic aging,” and cells subject to intrinsic aging may be referred to as “non-UV-exposed skin cells.” The treatment effect—in this case the anti-aging effect—of a specified ingredient (e.g., Pal-KTTKS) is measured by the vector distance (e.g., cosine distance) between two vectors of expression changes (e.g., log 2 fold expression changes) of genes in a target biological process. […]
as §2
Using the distributions, a percentile may be calculated for the vector distance between the clinical and treatment vectors. Specifically, the percentile among the extreme region of the distribution for the i-th target biological process is calculated according to […]

[4] = tested on: innate and adaptive immunity processes/pathways; experiment: Percentile of treatment anti-aging effect on Gene Ontology processes/pathways (FIG. 8)
Excerpt: as §1, §2

Compound: Pal-KTTKS
- effect on the ATPase regulation processes/pathways overall [1]: almost no effect
- calculated percentile of vector distance in distribution from fibroblast reference genomics data, UV-mediated aging ([2]; 3 ppm on fibroblast cells, UV-exposed cells): 0.36
- cosine distance with the photo aging vector ([2]; 3 ppm on fibroblast cells, UV-exposed cells clinical vector, cholesterol biosynthesis pathway): −0.640
- calculated percentile of vector distance in distribution from fibroblast reference genomics data, intrinsic aging ([2]; 3 ppm on fibroblast cells, non-UV-exposed cells): 0.22
- cosine distance with the intrinsic aging vector ([2]; 3 ppm on fibroblast cells, non-UV-exposed cells clinical vector, cholesterol biosynthesis pathway): −0.720
- anti-aging benefit on the cholesterol synthesis pathway ([2]; both intrinsic and UV-mediated aging): strong anti-aging benefit
- percentile values for each of the biological processes/pathways 100a-h ([3]; cholesterol metabolism set, FIG. 6): very low percentile values
- effect on the cholesterol metabolism processes/pathways ([3]; FIG. 6): very strong effect

Compound: NC(=O)c1cccnc1 [Niacinamide]
- effect on the set 140 of innate and adaptive immunity pathways [4]: strong effect
- percentile values for innate and adaptive immunity processes/pathways ([4]; many of the percentile values, example threshold): < 5%
- effect on the ATPase regulation processes/pathways overall [1]: almost no effect
- percentile for steroid metabolic process (100b) ([3]; columns D and E, only single process below exemplary threshold): < 5%
- effect on the cholesterol metabolism processes/pathways ([3]; FIG. 6): likely does not strongly affect

— US20150278436A1, “Methods For Evaluating Effects Of A Treatment On Biological Processes And Pathways” (The Procter & Gamble Company, priority 2014, published 2015)
